The values below come from patent publication US20250129021A1, “SMALL MOLECULE PROTEIN SYNTHESIS MODULATORS” (Interdict Bio, Inc., priority 2023, published 2025).

The test system of one assay is MCF7. Kind of assay: Cell viability (CellTiter-Fluor), MCF7. It is filed as cell-based. Conditions: Homo sapiens, 24-72 hrs. On the procedure:
(§1) Count and dispense 2,000-10,000 cells per well (100 μL volume) in black 96-well tissue culture microplate and let cells adhere overnight. Add compound dissolved in 100% DMSO to each well as needed and incubate cells in standard culture conditions for 24-72 hrs. Final DMSO concentration in each well should be 0.1-0.5%. At the desired time point, gently aspirate compound containing media and replace with PBS to wash. Repeat wash step for 2 total washes. Remove PBS and add 100 μL CellTiter-Fluor reagent (Promega) reagent to each well. Seal plate and incubate 1 hr at room temperature with orbital shaking. Analyze fluorescence using plate reader to quantify viable cells compared with vehicle (DMSO) control.

The subject of a further assay is MYC. Kind of assay: In vitro transcription-translation (IVTT) assay, MYC reporter. In kind it is biochemical. The settings on record: HeLa S3 lysate, 2 hrs at 30° C. The method in brief: (§2)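 Reporter: mCherry, P2A, then 3×FLAG-target peptide-sfGFP fusion, IRES-initiated; HeLa S3 lysate IVTT; cpd dilutions 30 μM−0.1 μM half-log in 100% DMSO (dilution-plate conc); DNA added last; 2 h, 30° C; PBS quench.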

The test system of another assay is HEK 293T. In words: Cell viability (CellTiter-Fluor), HEK 293T. The settings on record: Homo sapiens, 24-72 hrs. In kind it is cell-based. On the procedure: as §1
For another assay, the system named is CCND1. In words: In vitro transcription-translation (IVTT) assay, CCND1 reporter. Conditions: HeLa S3 lysate, sfGFP/mCherry ratio, 2 hrs at 30° C. In kind it is biochemical. The method in brief:
as §2

The subject of the next assay is MCL-1. In words: In vitro transcription-translation (IVTT) assay, MCL-1 reporter. In kind it is biochemical. Conditions: HeLa S3 lysate, sfGFP/mCherry ratio. The method in brief:
as §2

In a further assay the test system is BCL-2. Kind of assay: In vitro transcription-translation (IVTT) assay, BCL-2 reporter. It is filed as biochemical. The settings on record: HeLa S3 lysate, sfGFP/mCherry ratio, 2 hrs at 30° C. In short, it runs like this: as §2
In the next assay the test system is CCNE1. In words: In vitro transcription-translation (IVTT) assay, CCNE1 reporter. The settings on record: HeLa S3 lysate, sfGFP/mCherry ratio. It is filed as biochemical. On the procedure: In vitro transcription-translation assay setup: Each assay includes a master mix containing lysate and shared components, a 96-well plate containing compound titrations for testing, a 96-well DNA plate with reporter constructs to be tested, 96-well skirted PCR plates, and 96-well flat-bottom, black, fluorescent assay plates. Reaction materials setup: (A) Master mix—15 mL conical tube (3 mL of HeLa S3 Lysate described above; 0.6 mL of ThermoFisher Accessory Proteins (#88882); 1.2 ml of ThermoFisher Reaction Mix (#88882); 0.54 mL of nuclease-free Water); (B) 96-Well Master Mix+Compound Plate (Half-log dilutions (30 μM−0.1 μM) of 4 compounds of interest are prepared in 100% DMSO); 96-Well DNA Plate (Five DNA constructs are plated into single columns within the plate. Row 1 of the column contains nuclease free H2O, all other wells contain 110 ng/μL plasmid DNA). Reactions are started by mixing 155 μL of master mix and 3.5 μL of compound serial dilutions, then 9.1 μL of master mix+compound mixture is aliquoted across 5 96-well plates. Reactions begin with final addition of 2 μL of DNA for a 11.1 μL reaction volume in each well. The entire plate is sealed, and incubated for 2 hrs at 30° C. After 2 hrs, quench the assay using 45 μL of PBS, and transfer 50 μL to a flat-bottom black microplate Quantify the sfGFP and mCherry signals from each well on each plate, taking 3 reads of each plate, and perform data analysis below.
In vitro transcription-translation assay data analysis: Each plate is read three times in channels for both sfGFP and mCherry signals. The average signal across these 3 reads is then calculated for further analysis. Control wells containing no DNA reporter are subtracted from reporter wells in the same column to remove auto-fluorescence of the lysate. Then, the ratio of sfGFP/mCherry is calculated per well, and these ratios are averaged across the triplicate experiments on the same plate. Finally, the ratio of each titration concentration is normalized to the no drug control to create the normalized stalling metric. The error on this measurement is determined by propagating error through the averaging and normalization steps. Values are plotted and fit for IC50 determination for each test sequence and titration of compound.

For the next assay, the system named is ALK. Kind of assay: In vitro transcription-translation (IVTT) assay, ALK reporter. The settings on record: HeLa S3 lysate, sfGFP/mCherry ratio, 2 hrs at 30° C. It is filed as biochemical. In short, it runs like this: as §2
Where [1] appears, read: IVTT assay, MYC reporter, normalized sfGFP/mCherry ratio, half-log dilutions 30 μM-0.1 μM.
[2] abbreviates: IVTT assay, read-out: MCL1 IC50.

Structures are written as SMILES. Like-named read-outs stand apart in the source and are kept apart here.

On to `COc1ccc(C[C@H]2NC[C@H](O)[C@H]2OC(=O)NCC[C@H]2CCNC2)cc1` [Cmpd V187879], for which the IC50 is 1 to 4 µM in the assay on MCF7; under 10 µM with MYC (sfGFP/mCherry ratio); at least 4 µM in the assay with HEK 293T; under 10 µM in the assay on CCND1; under 10 µM in the assay on MCL-1 (2 hrs at 30° C.); 10 to 20 µM with BCL-2.
With `COc1ccc(C[C@H]2NC[C@H](O)[C@H]2OC(=O)NCCc2cnn[nH]2)cc1` [Cmpd V187783], the IC50 is 1 to 4 µM in the assay on MCF7; under 10 µM in the assay on MYC (sfGFP/mCherry ratio); 0.25 to 1 µM in the assay with HEK 293T; under 10 µM in the assay with MCL-1 (2 hrs at 30° C.); under 10 µM in the assay on BCL-2.
For `COc1ccc(C[C@H]2NC[C@H](O)[C@H]2OC(=O)NCCc2nc[nH]c2C)cc1` [V187823, (2R,3S,4S)-4-hydroxy-2-[(4-methoxyphenyl)methyl]pyrrolidin-3-yl N-[2-(5-methyl-1H-imidazol-4-yl)ethyl]carbamate], the IC50 in the assay with MYC (sfGFP/mCherry ratio) was under 10 µM; with HEK 293T it was at least 4 µM; in the assay with CCND1 it was 10 to 20 µM; in the assay with MCL-1 (2 hrs at 30° C.) it was under 10 µM; with BCL-2, 10 to 20 µM.
Consider `COc1ccc(C[C@H]2NC[C@H](O)[C@H]2OC(=O)NCCNc2cc[nH]n2)cc1` [V187827, (2R,3S,4S)-4-hydroxy-2-[(4-methoxyphenyl)methyl]pyrrolidin-3-yl N-[2-(1H-pyrazol-3-ylamino)ethyl]carbamate], for which the IC50 with MYC (sfGFP/mCherry ratio) is under 10 µM; with HEK 293T it was at least 4 µM; with CCND1, under 10 µM; in the assay with MCL-1 (2 hrs at 30° C.), under 10 µM; in the assay on BCL-2, 10 to 20 µM.
On to `O=C(NCc1cnsc1)O[C@@H]1[C@@H](O)CN[C@@H]1Cc1ccc(C(F)F)cc1` [V192929, (2R,3S,4S)-2-(4-(difluoromethyl)benzyl)-4-hydroxypyrrolidin-3-yl (isothiazol-4-ylmethyl)carbamate], for which the IC50 with MYC (setting [1]), with CCNE1 and in the assay on MCL-1 (setting [2]) was under 10 µM in each case.
With `O=C(NCC[C@H]1CC2(CC2)CN1)O[C@@H]1[C@@H](O)CN[C@@H]1Cc1ccc(-c2cnco2)cc1` [V193018, (2R,3S,4S)-4-hydroxy-2-(4-(oxazol-5-yl)benzyl)pyrrolidin-3-yl (2-((R)-5-azaspiro[2.4]heptan-6-yl)ethyl)carbamate], the half-maximal inhibitory concentration (IC50) with MYC (setting [1]), in the assay on CCNE1 and in the assay with MCL-1 (setting [2]) was under 10 µM each time.
Consider `COc1ccc(C[C@H]2NC[C@H](O)[C@H]2OC(=O)NCCc2cnc(N)[nH]2)cc1` [Cmpd V187594], for which the IC50 in the assay with MCF7 is 1 to 4 µM; in the assay with MYC (sfGFP/mCherry ratio) it was under 10 µM; with HEK 293T it was at least 4 µM; in the assay with CCND1 it was under 10 µM; with MCL-1 (2 hrs at 30° C.) it was under 10 µM.
Regarding `COc1ccc(C[C@H]2NC[C@H](O)[C@H]2OC(=O)NCCNc2ncc[nH]2)cc1` [V187825, (2R,3S,4S)-4-hydroxy-2-[(4-methoxyphenyl)methyl]pyrrolidin-3-yl N-[2-(1H-imidazol-2-ylamino)ethyl]carbamate], the half-inhibitory concentration (IC50) in the assay with MCF7 is at least 4 µM; with MYC (sfGFP/mCherry ratio), 20 to 30 µM; with HEK 293T, at least 4 µM; in the assay with CCND1, 10 to 20 µM; in the assay with MCL-1 (2 hrs at 30° C.), 10 to 20 µM; with BCL-2 it was 20 to 30 µM.
Regarding `O=C(NCC[C@@H]1CCNC1)O[C@@H]1[C@@H](O)CN[C@@H]1Cc1ccc(-c2cnn(C(F)F)c2)cc1` [V193081, (2R,3S,4S)-2-(4-(1-(difluoromethyl)-1H-pyrazol-4-yl)benzyl)-4-hydroxypyrrolidin-3-yl (2-((S)-pyrrolidin-3-yl)ethyl)carbamate], the IC50 with MYC (setting [1]), in the assay on CCNE1 and in the assay on MCL-1 (setting [2]) was under 10 µM each time.
With `O=C(NCC[C@@H]1CCN1)O[C@@H]1[C@@H](O)CN[C@@H]1Cc1ccc(C(F)F)cc1` [V193008, (2R,3S,4S)-2-{[4-(difluoromethyl)phenyl]methyl}-4-hydroxypyrrolidin-3-yl N-{2-[(2S)-azetidin-2-yl]ethyl}carbamate], the IC50 in the assay on MYC (setting [1]), in the assay with CCNE1 and in the assay with MCL-1 (setting [2]) was under 10 µM each time.
Consider `O=C(NCc1ccc2c(c1)CNC2)O[C@@H]1[C@@H](O)CN[C@@H]1Cc1ccc(-c2cc(C(F)F)cs2)cc1` [V193165, (2R,3S,4S)-2-(4-(4-(difluoromethyl)thiophen-2-yl)benzyl)-4-hydroxypyrrolidin-3-yl (isoindolin-5-ylmethyl)carbamate], for which the IC50 in the assay on MYC (setting [1]), in the assay on CCNE1 and in the assay with MCL-1 (setting [2]) was under 10 µM throughout.
Consider `O=C(NCC[C@@H]1CCN1)O[C@@H]1[C@@H](O)CN[C@@H]1Cc1ccc(-c2cnco2)c(F)c1` [V192991, (2R,3S,4S)-2-(3-fluoro-4-(oxazol-5-yl)benzyl)-4-hydroxypyrrolidin-3-yl (2-((S)-azetidin-2-yl)ethyl)carbamate], for which the IC50 with MYC (setting [1]), with CCNE1 and with MCL-1 (setting [2]) was under 10 µM throughout.
Regarding `CNC(=O)CNC(=O)O[C@@H]1[C@@H](O)CN[C@@H]1Cc1ccc(OC)cc1` [V188017, (2R,3S,4S)-4-hydroxy-2-[(4-methoxyphenyl)methyl]pyrrolidin-3-yl N-[(methylcarbamoyl)methyl]carbamate], the IC50 with MCF7 was 1 to 4 µM; in the assay with HEK 293T, 1 to 4 µM; in the assay on CCND1, 10 to 20 µM; with MCL-1 (2 hrs at 30° C.) it was under 10 µM; in the assay on BCL-2 it was 10 to 20 µM.
Regarding `COc1ccc(C[C@H]2NC[C@H](O)[C@H]2OC(=O)NCCn2ccnc2)cc1` [V187819, (2R,3S,4S)-4-hydroxy-2-[(4-methoxyphenyl)methyl]pyrrolidin-3-yl N-[2-(imidazol-1-yl)ethyl]carbamate], the IC50 was 1 to 4 µM in the assay on MCF7; under 10 µM in the assay with MYC (sfGFP/mCherry ratio); at least 4 µM in the assay on HEK 293T; under 10 µM with CCND1; under 10 µM in the assay on MCL-1 (2 hrs at 30° C.); under 10 µM with ALK.
Consider `O=C(NCCOC(F)(F)F)O[C@@H]1[C@@H](O)CN[C@@H]1Cc1ccc(C(F)F)cc1` [V192930, (2R,3S,4S)-2-(4-(difluoromethyl)benzyl)-4-hydroxypyrrolidin-3-yl (2-(trifluoromethoxy)ethyl)carbamate], for which the IC50 with MYC (setting [1]), with CCNE1 and in the assay with MCL-1 (setting [2]) was under 10 µM throughout.
With `N#Cc1csc(-c2ccc(C[C@H]3NC[C@H](O)[C@H]3OC(=O)NCc3cccc(F)c3)cc2)c1` [V193129, (2R,3S,4S)-2-(4-(4-cyanothiophene-2-yl)benzyl)-4-hydroxypyrrolidin-3-yl (3-fluorobenzyl)carbamate], the IC50 in the assay with MYC (setting [1]), with CCNE1 and in the assay on MCL-1 (setting [2]) was under 10 µM each time.
For `O=C(NCc1cccc(F)c1)O[C@@H]1[C@@H](O)CN[C@@H]1Cc1ccc(-c2cnn(C(F)F)c2)cc1` [V193079, (2R,3S,4S)-2-(4-(1-(difluoromethyl)-1H-pyrazol-4-yl)benzyl)-4-hydroxypyrrolidin-3-yl (3-fluorobenzyl)carbamate], the half-maximal inhibitory concentration (IC50) in the assay with MYC (setting [1]), in the assay with CCNE1 and in the assay on MCL-1 (setting [2]) was under 10 µM throughout.
Take `O=C(NCC[C@@H]1CCN1)O[C@@H]1[C@@H](O)CN[C@@H]1Cc1ccc(OC(F)F)cc1` [V192938, (2R,3S,4S)-2-{[4-(difluoromethoxy)phenyl]methyl}-4-hydroxypyrrolidin-3-yl N-{2-[(2S)-azetidin-2-yl]ethyl}carbamate]: the half-inhibitory concentration (IC50) with MYC (setting [1]), in the assay with CCNE1 and in the assay with MCL-1 (setting [2]) was under 10 µM throughout.
